Usually Ki stands for a dissociation constant, usually derived from enzyme kinetics or from competition with a known ligand. A lower Ki goes with a stronger hold on the target.

The target of the test is Pim-1 (Homo sapiens (Human), UniProt P11309). The experiment in a line: Pim kinase binding activity assay (Example 901), PIM-1 enzyme, Caliper microfluidic peptide phosphorylation. Format: biochemical. The settings on record: 20 pM PIM-1, 10 μM ATP, 1 μM FAM-peptide, 90 minutes at room temperature. The essentials:
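The readout was microfluidic mobility-shift separation of a FAM-tagged Pim-specific peptide, excited at 488 nm and read at 530 nm, with Ki calculated from percent conversion. Reactions held 20 pM PIM-1, 1 μM peptide and 10 μM ATP in pH 7.2 HEPES/MgCl2/DTT buffer, ran 90 min at room temperature and were stopped with EDTA.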

Chain of Pim-1 (P11309 whole entry): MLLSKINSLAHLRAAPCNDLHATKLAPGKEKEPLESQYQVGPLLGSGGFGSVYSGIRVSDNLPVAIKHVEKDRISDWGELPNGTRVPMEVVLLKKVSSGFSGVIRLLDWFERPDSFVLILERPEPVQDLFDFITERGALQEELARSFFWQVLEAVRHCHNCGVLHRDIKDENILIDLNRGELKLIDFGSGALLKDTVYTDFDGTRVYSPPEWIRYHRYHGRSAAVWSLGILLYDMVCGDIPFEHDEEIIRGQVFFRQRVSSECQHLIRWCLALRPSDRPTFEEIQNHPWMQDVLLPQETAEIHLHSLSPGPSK

As to `O=C1N(CC2CCNCC2)CCN1c1n[nH]c2cnc(-c3cccnc3)cc12` [Example 296, 1-(piperidin-4-ylmethyl)-3-(5-(pyridin-3-yl)-1H-pyrazolo[3,4-c]pyridin-3-yl)imidazolidin-2-one], the inhibition constant Ki is 9.74 nM.
Consider `Cn1cc(-c2cc3c(-c4cccc(NCC(C)(C)O)n4)n[nH]c3cn2)cn1` [Example 297, 2-methyl-1-(6-(5-(1-methyl-1H-pyrazol-4-yl)-1H-pyrazolo[3,4-c]pyridin-3-yl)pyridin-2-ylamino)propan-2-ol], for which the Ki was determined as 0.034 nM.
To `NC(=O)Nc1cc2c(-c3cccc(N4CCC[C@H](N)C4)n3)n[nH]c2cn1` [Example 298, (S)-1-(3-(6-(3-aminopiperidin-1-yl)pyridin-2-yl)-1H-pyrazolo[3,4-c]pyridin-5-yl)urea] belongs 14.1 nM.
Then `N[C@H]1CCC[C@@H](Oc2cccc(-c3n[nH]c4cnc(-c5cccnc5)cc34)n2)C1` [Example 299, (1S,3R)-3-(6-(5-(pyridin-3-yl)-1H-pyrazolo[3,4-c]pyridin-3-yl)pyridin-2-yloxy)cyclohexanamine], with 0.664 nM; and `N[C@@H]1CCCN(c2nccc(-c3n[nH]c4cnc(-c5cccnc5)cc34)n2)C1` [Example 300, (R)-1-(4-(5-(pyridin-3-yl)-1H-pyrazolo[3,4-c]pyridin-3-yl)pyrimidin-2-yl)piperidin-3-amine], with 0.07 nM.
Turning to `NC(=O)c1ccnc(-c2n[nH]c3cnc(-c4cccnc4)cc23)c1` [Example 302, 2-(5-(pyridin-3-yl)-1H-pyrazolo[3,4-c]pyridin-3-yl)isonicotinamide], affinity was put at a Ki of 6 nM.
`O=C1N(CC2CCNC2)CCN1c1n[nH]c2cnc(-c3cccnc3)cc12` (stereo not shown) [Example 303, 1-(5-(pyridin-3-yl)-1H-pyrazolo[3,4-c]pyridin-3-yl)-3-(pyrrolidin-3-ylmethyl)imidazolidin-2-one] displayed an inhibition constant Ki of 4.11 nM.
Then `Cc1ccc(-c2n[nH]c3cnc(-c4cccnc4)cc23)nc1N1CC[C@H](O)C1` [Example 305, (S)-1-(3-methyl-6-(5-(pyridin-3-yl)-1H-pyrazolo[3,4-c]pyridin-3-yl)pyridin-2-yl)pyrrolidin-3-ol], with 0.091 nM.
Then `Cc1ccc(-c2n[nH]c3cnc(-c4cccnc4)cc23)nc1N1CC[C@@H](O)C1` [Example 306, (R)-1-(3-methyl-6-(5-(pyridin-3-yl)-1H-pyrazolo[3,4-c]pyridin-3-yl)pyridin-2-yl)pyrrolidin-3-ol], with 0.22 nM.
Then `C=C(C)c1ccc(-c2n[nH]c3cnc(-c4cccnc4)cc23)nc1N1CCC[C@H](N)C1` [Example 308, (S)-1-(3-(prop-1-en-2-yl)-6-(5-(pyridin-3-yl)-1H-pyrazolo[3,4-c]pyridin-3-yl)pyridin-2-yl)piperidin-3-amine], with 0.01 nM.
`Cc1ccc(-c2n[nH]c3cnc(-c4cccnc4)cc23)nc1N1CCC[C@@H](O)C1` [Example 309, (R)-1-(3-methyl-6-(5-(pyridin-3-yl)-1H-pyrazolo[3,4-c]pyridin-3-yl)pyridin-2-yl)piperidin-3-ol]: the affinity corresponds to a Ki of 0.112 nM.
To `Cc1ccc(-c2n[nH]c3cnc(-c4cccnc4)cc23)nc1N1CCC[C@@H](N)C1` [Example 310, (R)-1-(3-methyl-6-(5-(pyridin-3-yl)-1H-pyrazolo[3,4-c]pyridin-3-yl)pyridin-2-yl)piperidin-3-amine] belongs 0.137 nM; to `N[C@H]1CCCN(c2nc(-c3n[nH]c4cnc(-c5cccnc5)cc34)ccc2Br)CC1` [Example 312, (S)-1-(3-bromo-6-(5-(pyridin-3-yl)-1H-pyrazolo[3,4-c]pyridin-3-yl)pyridin-2-yl)azepan-4-amine], 0.029 nM.
To `N[C@@H]1CCCN(c2nc(-c3n[nH]c4cnc(-c5cccnc5)cc34)ccc2Br)CC1` [Example 313, (R)-1-(3-bromo-6-(5-(pyridin-3-yl)-1H-pyrazolo[3,4-c]pyridin-3-yl)pyridin-2-yl)azepan-4-amine] belongs 0.028 nM.
To `Cc1ccc(-c2n[nH]c3cnc(-c4cccnc4)cc23)nc1N1CCC[C@H](N)C1` [Example 315, (S)-1-(3-methyl-6-(5-(pyridin-3-yl)-1H-pyrazolo[3,4-c]pyridin-3-yl)pyridin-2-yl)piperidin-3-amine] belongs 0.00806 nM; to `Cc1ccc(-c2n[nH]c3cnc(-c4cccnc4)cc23)nc1N1CC[C@H](N)C1` [Example 317, (S)-1-(3-methyl-6-(5-(pyridin-3-yl)-1H-pyrazolo[3,4-c]pyridin-3-yl)pyridin-2-yl)pyrrolidin-3-amine], 0.059 nM; to `O[C@H]1CCN(c2nc(-c3n[nH]c4cnc(-c5cccnc5)cc34)ccc2Br)C1` [Example 318, (S)-1-(3-bromo-6-(5-(pyridin-3-yl)-1H-pyrazolo[3,4-c]pyridin-3-yl)pyridin-2-yl)pyrrolidin-3-ol], 0.059 nM.
With `c1cncc(-c2cc3c(N4CCC(N5CCNCC5)C4)n[nH]c3cn2)c1` (stereo not shown) [Example 320, 3-(3-(piperazin-1-yl)pyrrolidin-1-yl)-5-(pyridin-3-yl)-1H-pyrazolo[3,4-c]pyridine], the Ki is 3.86 nM.
To `N[C@H]1C[C@@H](F)CN(c2cccc(-c3n[nH]c4cnc(-c5cccnc5)cc34)n2)C1` [Example 321, (3S,5R)-5-fluoro-1-(6-(5-(pyridin-3-yl)-1H-pyrazolo[3,4-c]pyridin-3-yl)pyridin-2-yl)piperidin-3-amine] belongs 0.0662 nM; to `O=C1CN(c2cccc(-c3n[nH]c4cnc(-c5cccnc5)cc34)n2)CCCN1` [Example 322, 4-(6-(5-(pyridin-3-yl)-1H-pyrazolo[3,4-c]pyridin-3-yl)pyridin-2-yl)-1,4-diazepan-2-one], 0.322 nM; to `c1ccc(-c2n[nH]c3cnc(-c4cncs4)cc23)cc1` [Example 323, 5-(3-phenyl-1H-pyrazolo[3,4-c]pyridin-5-yl)thiazole], 33 nM.
To `NCC1CCCCN1c1cccc(-c2n[nH]c3cnc(-c4cccnc4)cc23)n1` (stereo not shown) [Example 324, (1-(6-(5-(pyridin-3-yl)-1H-pyrazolo[3,4-c]pyridin-3-yl)pyridin-2-yl)piperidin-2-yl)methanamine] belongs 0.296 nM; to `NC1CCN(C(=O)C2CCN(c3n[nH]c4cnc(-c5cccnc5)cc34)C2=O)CC1` (stereo not shown) [Example 325, 3-(4-aminopiperidine-1-carbonyl)-1-(5-(pyridin-3-yl)-1H-pyrazolo[3,4-c]pyridin-3-yl)pyrrolidin-2-one], 106 nM; to `NCCNC(=O)c1cccc(-c2n[nH]c3cnc(-c4cccnc4)cc23)n1` [Example 326, N-(2-aminoethyl)-6-(5-(pyridin-3-yl)-1H-pyrazolo[3,4-c]pyridin-3-yl)picolinamide], 17.7 nM.
To `CCc1ccc(-c2n[nH]c3cnc(-c4cccnc4)cc23)nc1N1CCC[C@H](N)C1` [Example 327, (S)-1-(3-ethyl-6-(5-(pyridin-3-yl)-1H-pyrazolo[3,4-c]pyridin-3-yl)pyridin-2-yl)piperidin-3-amine] belongs 0.035 nM; to `CC(C)c1ccc(-c2n[nH]c3cnc(-c4cccnc4)cc23)nc1N1CCC[C@H](N)C1` [Example 328, (S)-1-(3-isopropyl-6-(5-(pyridin-3-yl)-1H-pyrazolo[3,4-c]pyridin-3-yl)pyridin-2-yl)piperidin-3-amine], 0.046 nM; to `O=C(NC1CNC1)c1cccc(-c2n[nH]c3cnc(-c4cccnc4)cc23)n1` [Example 329, N-(azetidin-3-yl)-6-(5-(pyridin-3-yl)-1H-pyrazolo[3,4-c]pyridin-3-yl)picolinamide], 16.5 nM.
`CN1CCN(c2cc3c(-c4ccccc4)n[nH]c3cn2)CC1=O` [Example 330, 1-methyl-4-(3-phenyl-1H-pyrazolo[3,4-c]pyridin-5-yl)piperazin-2-one] came in with a Ki of 660 nM.
To `CN1CCN(c2cc3c(-c4cnn(C)c4)n[nH]c3cn2)CC1=O` [Example 331, 1-methyl-4-(3-(1-methyl-1H-pyrazol-4-yl)-1H-pyrazolo[3,4-c]pyridin-5-yl)piperazin-2-one] belongs 721 nM.
`Cn1cc(-c2cc3c(-c4ccccn4)n[nH]c3cn2)cn1` [Example 332, 5-(1-methyl-1H-pyrazol-4-yl)-3-(pyridin-2-yl)-1H-pyrazolo[3,4-c]pyridine]: the Ki came out at 7.71 nM.
Then `NCCC1CCN(c2cccc(-c3n[nH]c4cnc(-c5cccnc5)cc34)n2)C1` (stereo not shown) [Example 333, 2-(1-(6-(5-(pyridin-3-yl)-1H-pyrazolo[3,4-c]pyridin-3-yl)pyridin-2-yl)pyrrolidin-3-yl)ethanamine], with 0.13 nM; and `N[C@H]1CCN(c2ccc(-c3n[nH]c4cnc(-c5cccnc5)cc34)nc2)C1=O` [Example 334, (S)-3-amino-1-(6-(5-(pyridin-3-yl)-1H-pyrazolo[3,4-c]pyridin-3-yl)pyridin-3-yl)pyrrolidin-2-one], with 1.57 nM; and `O=C1CN(c2cc3c(-c4cccc(N5CCNCC5)n4)n[nH]c3cn2)CCN1` [Example 335, 4-(3-(6-(piperazin-1-yl)pyridin-2-yl)-1H-pyrazolo[3,4-c]pyridin-5-yl)piperazin-2-one], with 12.6 nM.
`NC1CCN(C(=O)c2cccc(-c3n[nH]c4cnc(-c5cccnc5)cc34)n2)CC1` [Example 336, (4-aminopiperidin-1-yl)(6-(5-(pyridin-3-yl)-1H-pyrazolo[3,4-c]pyridin-3-yl)pyridin-2-yl)methanone] gave an inhibition constant (Ki) of 12.7 nM.
To `O=C(NC1CCNCC1)c1cccc(-c2n[nH]c3cnc(-c4cccnc4)cc23)n1` [Example 337, N-(piperidin-4-yl)-6-(5-(pyridin-3-yl)-1H-pyrazolo[3,4-c]pyridin-3-yl)picolinamide] belongs 30.5 nM; to `c1ccc(-c2n[nH]c3cnc(-c4cncs4)cc23)nc1` [Example 338, 5-(3-(pyridin-2-yl)-1H-pyrazolo[3,4-c]pyridin-5-yl)thiazole], 24.5 nM.
To `CN1CCN(c2cc3c(-c4ccccc4F)n[nH]c3cn2)CC1=O` [Example 339, 4-(3-(2-fluorophenyl)-1H-pyrazolo[3,4-c]pyridin-5-yl)-1-methylpiperazin-2-one] belongs 5500 nM.
